Results as given in PubChem BioAssay AID274 (DTP/NCI, 2004).
Several values for one entry are separate records, joined by “and”; a condition that tells them apart may be missing. Identical values can stand only once. Toxic doses and inconclusive results are not listed.

Test system: BDF1 mice, Lewis lung carcinoma iv, survival T/C
Experiment: NCI In Vivo Anticancer Drug Screen. Data for tumor model Lewis Lung Carcinoma (intravenous) in B6D2F1 (BDF1) mice
Details: endpoint: median survival time, higher = longer survival
Experimental: The antitumor activity of compounds was measured in mice bearing transplantable tumors. Survival or tumor size were measured and the results are expressed as the measurement made in the treated group (T) divided by the measurement made in the vehicle treated control group (C). The tumor model used in this assay is Lewis Lung Carcinoma (intravenous) in B6D2F1 (BDF1) mice

Q: Which T/C (dose: 72.0 mg/kg/injection, schedule: Q01DX007 (ip), vehicle: Klucel (hydroxypropylcellulose) (HPC)) does the source give for CCc1cc(C(N)=S)ccn1 here?
A: 96 % of control

Q: What about the T/C (dose: 102.9 mg/kg/injection, schedule: Q01DX007 (ip), vehicle: Klucel (hydroxypropylcellulose) (HPC)) of the same molecule?
A: 95 % of control

Q: And the T/C (dose: 147.0 mg/kg/injection, schedule: Q01DX007 (ip), vehicle: Klucel (hydroxypropylcellulose) (HPC))?
A: 86 % of control

Q: And the T/C (dose: 300.0 mg/kg/injection, schedule: Q01DX007 (ip), vehicle: Klucel (hydroxypropylcellulose) (HPC))?
A: 99 % of control

Q: With Cc1ccccc1N(CC1CO1)CC1CO1 (stereo unspecified) as the molecule, how does the T/C (dose: 12.5 mg/kg/injection, schedule: Q01DX009 (ip), vehicle: saline) read?
A: 106 % of control

Q: And the T/C (dose: 25.0 mg/kg/injection, schedule: Q01DX009 (ip), vehicle: saline)?
A: 103 % of control

Q: What about the T/C (dose: 50.0 mg/kg/injection, schedule: Q01DX009 (ip), vehicle: saline) of the same molecule?
A: 109 % of control

Q: And the T/C (dose: 100.0 mg/kg/injection, schedule: Q01DX009 (ip), vehicle: saline)?
A: 100 % of control

Q: And the T/C (dose: 200.0 mg/kg/injection, schedule: Q01DX009 (ip), vehicle: saline)?
A: 110 % of control

Q: What does the source list for CC12CC(C(=O)O)C3(O)CC(C)(C1)CC(C)(C2)C3 (stereo unspecified) (tested in a mixture with another compound)?
A: T/C (dose: 12.5 mg/kg/injection, schedule: Q01DX009 (ip), vehicle: saline with Tween-80): 99 % of control; T/C (dose: 25.0 mg/kg/injection, schedule: Q01DX009 (ip), vehicle: saline with Tween-80): 86 % of control; T/C (dose: 50.0 mg/kg/injection, schedule: Q01DX009 (ip), vehicle: saline with Tween-80): 89 % of control; T/C (dose: 100.0 mg/kg/injection, schedule: Q01DX009 (ip), vehicle: saline with Tween-80): 94 % of control; T/C (dose: 200.0 mg/kg/injection, schedule: Q01DX009 (ip), vehicle: saline with Tween-80): 99 % of control

Q: With O=c1[nH]c(=O)n(C2CC(O)C(CO)O2)cc1F (stereo unspecified) as the molecule, how does the T/C (dose: 72.0 mg/kg/injection, schedule: Q04DX003 (ip), vehicle: saline) read?
A: 108 % of control and 113 % of control

Q: And the T/C (dose: 72.0 mg/kg/injection, schedule: Q04DX006 (ip), vehicle: saline)?
A: 123 % of control

Q: What about the T/C (dose: 103.0 mg/kg/injection, schedule: Q04DX006 (ip), vehicle: saline) of the same molecule?
A: 116 % of control

Q: What about the T/C (dose: 210.0 mg/kg/injection, schedule: Q04DX006 (ip), vehicle: saline) of the same molecule?
A: 155 % of control

Q: What about the T/C (dose: 300.0 mg/kg/injection, schedule: Q04DX006 (ip), vehicle: saline) of the same molecule?
A: 96 % of control

Q: What about the T/C (dose: 429.0 mg/kg/injection, schedule: Q04DX003 (ip), vehicle: saline) of the same molecule?
A: 174 % of control

Q: Which T/C (dose: 0.63 mg/kg/injection, schedule: Q01DX009 (ip), vehicle: saline with Tween-80) does the source give for CC(C)([NH-])CO.CC(C)([NH-])CO.[Cl][Cd][Cl] here?
A: 97 % of control

Q: What about the T/C (dose: 1.25 mg/kg/injection, schedule: Q01DX009 (ip), vehicle: saline with Tween-80) of the same molecule?
A: 88 % of control

Q: And the T/C (dose: 2.5 mg/kg/injection, schedule: Q01DX009 (ip), vehicle: saline with Tween-80)?
A: 99 % of control

Q: What does the source list for O=C(O)CC(=O)O.[NH-]C1CCCCC1[NH-].[Pt+2] (stereo unspecified)?
A: T/C (dose: 12.5 mg/kg/injection, schedule: Q01DX009 (ip), vehicle: dextrose): 117 % of control; T/C (dose: 25.0 mg/kg/injection, schedule: Q01DX009 (ip), vehicle: dextrose): 88 % of control

Q: How did the T/C (dose: 25.0 mg/kg/injection, schedule: Q01DX009 (ip), vehicle: Klucel (hydroxypropylcellulose) (HPC)) turn out when c1nc(N2CC2)c2cnn(C3CCCCO3)c2n1 (stereo unspecified) was run?
A: 107 % of control

Q: What about the T/C (dose: 50.0 mg/kg/injection, schedule: Q01DX009 (ip), vehicle: Klucel (hydroxypropylcellulose) (HPC)) of the same molecule?
A: 100 % of control

Q: What about the T/C (dose: 100.0 mg/kg/injection, schedule: Q01DX009 (ip), vehicle: Klucel (hydroxypropylcellulose) (HPC)) of the same molecule?
A: 101 % of control

Q: Which T/C (dose: 0.25 mg/kg/injection, schedule: Q01DX009 (ip), vehicle: saline) does the source give for N[C@@H](Cc1ccc(N(CCCl)CCCl)cc1)C(=O)O here?
A: 92 % of control

Q: And the T/C (dose: 0.5 mg/kg/injection, schedule: Q01DX009 (ip), vehicle: saline)?
A: 99 % of control and 102 % of control and 103 % of control

Q: And the T/C (dose: 1.0 mg/kg/injection, schedule: Q01DX009 (ip), vehicle: saline)?
A: 104 % of control and 105 % of control and 109 % of control

Q: What about the T/C (dose: 1.95 mg/kg/injection, schedule: Q04DX003 (ip), vehicle: saline) of the same molecule?
A: 92 % of control

Q: What about the T/C (dose: 2.0 mg/kg/injection, schedule: Q01DX009 (ip), vehicle: saline) of the same molecule?
A: 96 % of control and 110 % of control and 117 % of control

Q: What about the T/C (dose: 3.24 mg/kg/injection, schedule: Q04DX003 (ip), vehicle: saline) of the same molecule?
A: 98 % of control

Q: And the T/C (dose: 3.4 mg/kg/injection, schedule: Q04DX003 (ip), vehicle: saline)?
A: 100 % of control

Q: What about the T/C (dose: 4.0 mg/kg/injection, schedule: Q01DX009 (ip), vehicle: saline) of the same molecule?
A: 112 % of control and 114 % of control

Q: What about the T/C (dose: 4.9 mg/kg/injection, schedule: Q04DX003 (ip), vehicle: saline) of the same molecule?
A: 106 % of control

Q: What about the T/C (dose: 5.4 mg/kg/injection, schedule: Q04DX003 (ip), vehicle: saline) of the same molecule?
A: 100 % of control

Q: And the T/C (dose: 8.0 mg/kg/injection, schedule: Q01DX009 (ip), vehicle: saline)?
A: 113 % of control

Q: And the T/C (dose: 9.0 mg/kg/injection, schedule: Q04DX003 (ip), vehicle: saline)?
A: 154 % of control

Q: What about the T/C (dose: 14.3 mg/kg/injection, schedule: Q04DX003 (ip), vehicle: saline) of the same molecule?
A: 122 % of control
